From patent US8288375B2, “Fungicidal bicyclic pyrazoles” (E.I. du Pont de Nemours and Company, priority 2007, dated 2012)

Columns and labels:
Pythium aphanidermatum = test: Test L: bluegrass pythium blight, test suspension sprayed on bluegrass seedlings, disease rating; assay type: in vivo; details: for pest or weed control at 200 ppm / pest or weed control at 40 ppm: Pythium aphanidermatum, 120 h; for pest or weed control at 200 ppm / Test L disease control rating: 200 ppm test suspension; for pest or weed control at 40 ppm: 40 ppm test suspension (*);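 on all read-outs here: 200 ppm unless marked * meaning 40 ppm or ** meaning 10 ppm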
Septoria tritici = test: Test E: wheat leaf blotch, test suspension sprayed on wheat seedlings, disease rating; assay type: in vivo; details: for pest or weed control at 200 ppm / pest or weed control at 40 ppm: Zymoseptoria tritici, 504 h; for pest or weed control at 200 ppm / Test E disease control rating: 200 ppm test suspension; for pest or weed control at 40 ppm: 40 ppm test suspension (*);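 on all read-outs here: 200 ppm unless marked * meaning 40 ppm or ** meaning 10 ppm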
[1] = tested on: Erysiphe graminis f. sp. tritici; test: Test A: wheat powdery mildew, test suspension sprayed on wheat seedlings, disease rating; assay type: in vivo; details: 200 ppm test suspension, 100 = 100% disease control, 0 = no control; for pest or weed control at 200 ppm: Blumeria graminis, 192 h
Phytophthora infestans = test: whole plant or invertebrate; assay type: in vivo; details: for pest or weed control at 200 ppm / pest or weed control at 40 ppm: Phytophthora infestans, in Solanum lycopersicum, 120 h, read-out: Test J disease control rating; for Test J disease control rating: 200 ppm test suspension
[2] = tested on: Puccinia recondite f sp. tritici; test: Test B: wheat leaf rust, test suspension sprayed on wheat seedlings, disease rating; assay type: in vivo; details: for pest or weed control at 200 ppm / pest or weed control at 40 ppm: Puccinia, 192 h; for pest or weed control at 200 ppm / Test B disease control rating: 200 ppm test suspension; for pest or weed control at 40 ppm: 40 ppm test suspension (*);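 on all read-outs here: 200 ppm unless marked * meaning 40 ppm or ** meaning 10 ppm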
Septoria nodorum = test: Test D: wheat glume blotch, test suspension sprayed on wheat seedlings, disease rating; assay type: in vivo; details: 200 ppm test suspension; for pest or weed control at 200 ppm: Parastagonospora nodorum, 216 h
Fusarium graminearum = test: whole plant or invertebrate; assay type: in vivo; details: for pest or weed control at 200 ppm / pest or weed control at 40 ppm: Fusarium graminearum, in Triticum aestivum, 192 h, read-out: Test C disease control rating; for Test C disease control rating: 200 ppm test suspension
Botrytis cinerea = test: Test H: tomato Botrytis, test suspension sprayed on tomato seedlings, disease rating; assay type: in vivo; details: 200 ppm test suspension; for pest or weed control at 200 ppm: Botrytis cinerea, 120 h
Rhizoctonia oryzae = test: Test I: turf brown patch, test suspension sprayed on creeping bent grass seedlings, disease rating; assay type: in vivo; details: 200 ppm test suspension; for pest or weed control at 200 ppm: Waitea circinata, in Agrostis stolonifera, 120 h
Alternaria solani = test: Test G: tomato early blight, test suspension sprayed on seedlings, disease rating; assay type: in vivo; details: Alternaria solani, 168 h; for pest or weed control at 40 ppm: 40 ppm test suspension (*);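 on all read-outs here: 200 ppm unless marked * meaning 40 ppm or ** meaning 10 ppm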
[3] = tested on: Colletotrichum orbiculare; test: Test F: cucumber Colletotrichum anthracnose, test suspension sprayed on cucumber seedlings, disease rating; assay type: in vivo; details: 200 ppm test suspension; for pest or weed control at 200 ppm: Colletotrichum orbiculare, 144 h
Plasmopara viticola = test: Test K: grape downy mildew, grape seedlings inoculated and then sprayed, disease rating; assay type: in vivo; details: 200 ppm test suspension

Row | SMILES | pest or weed control at 200 ppm (Pythium aphanidermatum) [%] | pest or weed control at 200 ppm (Septoria tritici) [%] | pest or weed control at 200 ppm [1] [%] | melting point [°C] | pest or weed control at 200 ppm (Phytophthora infestans) [%] | pest or weed control at 200 ppm [2] [%] | pest or weed control at 200 ppm (Septoria nodorum) [%] | pest or weed control at 200 ppm (Fusarium graminearum) [%] | pest or weed control at 200 ppm (Botrytis cinerea) [%] | pest or weed control at 200 ppm (Rhizoctonia oryzae) [%] | pest or weed control at 200 ppm [3] [%] | also measured
1 | CC(CO)Nc1nccc(-c2c(-c3ccc(F)cc3)nn3c2COCC3)n1 (stereo not drawn) [Compound 108, 2-[[4-[2-(4-fluorophenyl)-6,7-dihydro-4H-pyrazolo[5,1-c][1,4]oxazin-3-yl]-2-pyrimidinyl]amino]-1-propanol] | 100 | 99 | 43 | 124 to 126 | 77 | 99 | 87 | 98 |  |  |  | 
2 | COC(=O)N1CCn2nc(-c3ccc(F)cc3)c(-c3ccnc(NC(C)C)n3)c2C1 [Compound 138, methyl 2-(4-fluorophenyl)-6,7-dihydro-3-[2-[(1-methylethyl)amino]-4-pyrimidinyl]pyrazolo[1,5-a]pyrazine-5(4H)-carboxylate] |  |  | 0 | 88 to 89 |  |  | 99 |  | 68 | 0 |  | pest or weed control at 40 ppm (Pythium aphanidermatum): 99%; pest or weed control at 40 ppm (Septoria tritici): 83%; pest or weed control at 40 ppm (Phytophthora infestans): 88%; pest or weed control at 40 ppm [2]: 98%; pest or weed control at 40 ppm (Fusarium graminearum): 86%; pest or weed control at 40 ppm (Alternaria solani): 99%
3 | CC(C)Nc1nccc(-c2c(-c3ccccc3)nn3c2COCC3)n1 [Compound 116, 4-(6,7-dihydro-2-phenyl-4H-pyrazolo[5,1-c][1,4]oxazin-3-yl)-N-(1-methylethyl)-2-pyrimidinamine] | 100 | 91 | 90 | 185 to 187 | 95 | 93 | 92 | 100 |  |  |  | 
4 | Fc1ccc(-c2nn3c(c2-c2ccnc(NC4CCCC4)n2)CCCC3)cc1 [compound 7] |  |  |  |  |  |  |  |  |  |  |  | Test L disease control rating (Pythium aphanidermatum): 0%; Test F disease control rating [3]: 90%; Test E disease control rating (Septoria tritici): 99%; Test A disease control rating [1]: 82%; Test H disease control rating (Botrytis cinerea): 82%; Test K disease control rating (Plasmopara viticola): 0%; Test J disease control rating (Phytophthora infestans): 93%; Test B disease control rating [2]: 99%; Test D disease control rating (Septoria nodorum): 98%; Test I disease control rating (Rhizoctonia oryzae): 0%; Test C disease control rating (Fusarium graminearum): 100%
5 | CCCC(C)Nc1nccc(-c2c(-c3ccc(F)cc3)nn3c2CCCC3)n1 (stereo not drawn) [compound 4] |  |  |  |  |  |  |  |  |  |  |  | Test L disease control rating (Pythium aphanidermatum): 0%; Test F disease control rating [3]: 8%; Test E disease control rating (Septoria tritici): 90%; Test A disease control rating [1]: 0%; Test H disease control rating (Botrytis cinerea): 55%; Test K disease control rating (Plasmopara viticola): 21%; Test J disease control rating (Phytophthora infestans): 0%; Test B disease control rating [2]: 92%; Test D disease control rating (Septoria nodorum): 60%; Test I disease control rating (Rhizoctonia oryzae): 0%; Test C disease control rating (Fusarium graminearum): 100%
6 | Fc1ccc(-c2nn3c(c2-c2ccnc(Cl)n2)CCCN3)cc1 |  |  |  | 206 to 207 |  |  |  |  |  |  |  | 
7 | CC(CO)Nc1nccc(-c2c(-c3ccc(F)cc3)nn3c2CCCN3)n1 (stereo not drawn) [Compound 132, 2-[[4-[2-(4-fluorophenyl)-4,5,6,7-tetrahydropyrazolo[1,5-b]pyridazin-3-yl]-2-pyrimidinyl]amino]-1-propanol] |  |  | 66 | 165 to 167 |  |  | 0 |  | 0 | 0 | 0 | pest or weed control at 40 ppm (Pythium aphanidermatum): 100%; pest or weed control at 40 ppm (Septoria tritici): 0%; pest or weed control at 40 ppm (Phytophthora infestans): 65%; pest or weed control at 40 ppm [2]: 88%; pest or weed control at 40 ppm (Fusarium graminearum): 0%; pest or weed control at 40 ppm (Alternaria solani): 0%
8 | c1cc(-c2c(-c3ccsc3)nn3c2COCC3)nc(NC2CC2)n1 [Compound 121, N-cyclopropyl-4-[6,7-dihydro-2-(3-thienyl)-4H-pyrazolo[5,1-c][1,4]oxazin-3-yl]-2-pyrimidinamine] | 99 | 93 | 0 | 182 to 184 | 97 | 94 | 84 | 99 | 66 |  | 15 | pest or weed control at 200 ppm (Alternaria solani; 200 ppm test suspension): 89%
9 | Fc1ccc(-c2nn3c(c2-c2ccnc(NC4CCC4)n2)CCCC3)cc1 [Compound 51, N-cyclobutyl-4-[2-(4-fluorophenyl)-4,5,6,7-tetrahydropyrazolo[1,5-a]pyridin-3-yl]-2-pyrimidinamine] | 100 | 100 | 81 | 155 to 157 | 93 | 98 | 100 | 100 |  |  |  | 
10 | Fc1ccc(-c2nn3c(c2-c2ccnc(NC4CC4)n2)CCCC3)cc1 [Compound 12, N-cyclopropyl-4-[2-(4-fluorophenyl)-4,5,6,7-tetrahydropyrazolo[1,5-a]pyridin-3-yl]-2-pyrimidinamine] | 100 | 100 | 97 | 164 to 165 | 100 | 99 | 99 | 100 | 98 | 64 | 94 | Test K disease control rating (Plasmopara viticola): 0%
11 | c1ccc(-c2nn3c(c2-c2ccnc(NC4CC4)n2)COCC3)cc1 [Compound 117, N-cyclopropyl-4-(6,7-dihydro-2-phenyl-4H-pyrazolo[5,1-c][1,4]oxazin-3-yl)-2-pyrimidinamine] | 100 | 98 | 86 | 186 to 189 | 95 | 97 | 98 | 99 |  |  |  | 
12 | CC(C)Nc1nccc(-c2c(-c3ccc(F)cc3)nn3c2CCOC3)n1 [Compound 112, 4-[2-(4-fluorophenyl)-4,5-dihydro-7H-pyrazolo[1,5-c][1,3]oxazin-3-yl]-N-(1-methylethyl)-2-pyrimidinamine] | 99 | 99 | 0 | 167 to 169 | 99 | 95 | 93 | 100 |  |  |  | 
13 | CC(C)Nc1nccc(-c2c(-c3ccc(F)cc3)nn3c2COCC3)n1 [Compound 107, 4-[2-(4-fluorophenyl)-6,7-dihydro-4H-pyrazolo[5,1-c][1,4]oxazin-3-yl]-N-(1-methylethyl)-2-pyrimidinamine] | 100 | 100 | 92 | 144 to 146 | 100 | 99 | 99 | 99 | 90 | 80 | 99 | pest or weed control at 40 ppm (Alternaria solani): 99%
14 | Fc1ccc(-c2nn3c(c2-c2ccnc(NCC4CC4)n2)CCCC3)cc1 [Compound 24, N-(cyclopropylmethyl)-4-[2-(4-fluorophenyl)-4,5,6,7-tetrahydropyrazolo[1,5-a]pyridin-3-yl]-2-pyrimidinamine] | 0 | 98 | 97 | 124 to 125 | 72 |  | 98 |  |  |  |  | 
15 | CC(C)Nc1nccc(-c2c(-c3ccc(F)cc3)nn3c2CCCC3)n1 [Compound 8, 4-[2-(4-fluorophenyl)-4,5,6,7-tetrahydropyrazolo[1,5-a]pyridin-3-yl]-N-(1-methylethyl)-2-pyrimidinamine] | 100 | 100 | 81 | 178 to 180 | 100 | 99 | 100 | 100 | 97 | 62 | 99 | pest or weed control at 40 ppm (Alternaria solani): 99%
16 | CCCNc1nccc(-c2c(-c3ccc(F)cc3)nn3c2CCCC3)n1 [compound 11] |  |  |  |  |  |  |  |  |  |  |  | Test L disease control rating (Pythium aphanidermatum): 100%; Test F disease control rating [3]: 83%; Test E disease control rating (Septoria tritici): 98%; Test A disease control rating [1]: 93%; Test H disease control rating (Botrytis cinerea): 97%; Test K disease control rating (Plasmopara viticola): 0%; Test J disease control rating (Phytophthora infestans): 100%; Test B disease control rating [2]: 99%; Test D disease control rating (Septoria nodorum): 99%; Test I disease control rating (Rhizoctonia oryzae): 44%; Test C disease control rating (Fusarium graminearum): 100%
